According to patent publication US20080108674A1, “CATIONIC ANTISEPTIC AND DYE FORMULATION” (ENTURIA, INC., priority 2006, published 2008):

Legend:
[1] = Compatibility of an anionic dye alone with an aqueous CHG solution (Example 1); type: physicochemical; details: 0.13% w/v dye in distilled water, no cationic excipient; after two drops
Protocol: The compatibility of an anionic dye alone with an aqueous chlorhexidine gluconate (CHG) solution (i.e., without the addition of a cationic excipient) was tested. A 0.13% w/v anionic dye solution was prepared by dissolving 0.13 g FD&C Yellow 6 in 100 ml of distilled water. A 20% w/v aqueous CHG solution was then added drop wise to the dye solution.

[2] = Three-month room temperature storage of aqueous CHG / cationic dye solutions (Examples 7, 8); type: physicochemical; details: 2.0% w/v CHG and 0.05% w/v dye in water
Protocol: The chemical structure and chemical category of each of these dyes are presented below. Crystal violet, malachite green, and Victoria pure blue BO all belong to the same chemical family, triarylmethane. Bismark brown and acriflavine each belong to a different chemical family, azo and acridine, respectively. [drawing 3] [drawing 4]
Aqueous solutions of 2.0% w/v CHG and 0.05% w/v dye were prepared for each of the dyes indicated above to test the stability of the solutions. Each aqueous solution was prepared using a Class A 100 ml volumetric flask, in which 0.050 grams of dye were dissolved in 30.0 ml of distilled water. Additionally, 10.6 g of 20% w/v aqueous CHG solution was added to the flask. The solution was then brought up to volume with distilled water. The solutions were stored for three months at room temperatures.
In particular, the dye tested was azure C, which is a cationic dye that belongs to the thiazin family. Its positive charge comes from a tertiary sulfur atom instead of a quaternary nitrogen atom. The chemical structure and chemical category of azure C is presented below. [drawing 5]
An aqueous solution of 2.0% w/v CHG and 0.05% w/v azure C dye was prepared to test the stability of the solution. The solution was prepared similar to the preparation of the solutions in Example 7. […]

Structure (SMILES): O=S(=O)([O-])c1ccc(N=Nc2c(O)ccc3cc(S(=O)(=O)[O-])ccc23)cc1.[Na+].[Na+] [FD&C Yellow 6, FD&C Yellow No. 6 (Sunset Yellow FCF)]
- precipitate on drop wise addition of 20% w/v aqueous CHG solution to the dye solution [1]: precipitate was formed

Structure (SMILES): CNc1ccc2nc3ccc(N)cc3[s+]c2c1.[Cl-] [azure C]
- time solution stable and dye compatible ([2]; room temperature): at least three months
- visible precipitate ([2]; stored three months at room temperature): no visible precipitate
